Measurements taken from publication PMC5520492, “Inhibition of DNA2 nuclease as a therapeutic strategy targeting replication stress in cancer cells” (Oncogenesis, 2017).
Entries after “also recorded” stand apart in the source; their conditions may differ.

Key:
[1] = target: T1, hDNA2, Bloom syndrome and RPA (Homo sapiens, UniProt P51530); experiment: Reconstituted 5' DNA end resection assay (2-kb dsDNA degradation); format: biochemical; settings: hDNA2 5 nM, Bloom syndrome 5 nM, RPA 100 nM
T1 construct: made in house
T1 sequence (P51530 1-1060): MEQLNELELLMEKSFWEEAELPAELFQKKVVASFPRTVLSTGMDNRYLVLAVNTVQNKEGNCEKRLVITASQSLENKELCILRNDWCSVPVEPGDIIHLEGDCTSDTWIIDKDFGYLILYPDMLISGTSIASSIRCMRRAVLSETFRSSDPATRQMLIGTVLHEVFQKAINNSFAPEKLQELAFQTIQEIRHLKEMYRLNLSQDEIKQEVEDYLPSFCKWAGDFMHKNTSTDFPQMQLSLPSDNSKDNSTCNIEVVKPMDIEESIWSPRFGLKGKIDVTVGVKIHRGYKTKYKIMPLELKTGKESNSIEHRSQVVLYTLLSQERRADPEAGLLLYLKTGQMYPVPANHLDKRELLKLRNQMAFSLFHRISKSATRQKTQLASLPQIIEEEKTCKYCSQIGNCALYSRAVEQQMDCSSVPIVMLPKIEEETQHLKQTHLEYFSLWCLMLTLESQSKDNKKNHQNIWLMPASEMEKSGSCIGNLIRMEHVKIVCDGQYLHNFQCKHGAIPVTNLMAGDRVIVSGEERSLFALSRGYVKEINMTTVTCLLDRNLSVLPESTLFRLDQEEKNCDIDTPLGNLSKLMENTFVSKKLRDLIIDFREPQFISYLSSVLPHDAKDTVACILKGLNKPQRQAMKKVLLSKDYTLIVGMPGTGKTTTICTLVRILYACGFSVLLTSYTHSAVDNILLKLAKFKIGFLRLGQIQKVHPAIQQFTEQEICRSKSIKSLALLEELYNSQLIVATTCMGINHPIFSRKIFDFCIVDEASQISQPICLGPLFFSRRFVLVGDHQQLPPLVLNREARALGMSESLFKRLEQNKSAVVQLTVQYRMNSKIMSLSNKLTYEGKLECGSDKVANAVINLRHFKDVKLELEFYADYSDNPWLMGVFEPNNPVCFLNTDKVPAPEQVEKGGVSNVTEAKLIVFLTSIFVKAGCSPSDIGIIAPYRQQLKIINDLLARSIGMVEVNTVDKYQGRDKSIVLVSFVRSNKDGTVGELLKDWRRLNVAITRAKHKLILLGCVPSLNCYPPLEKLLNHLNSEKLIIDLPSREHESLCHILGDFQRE
Procedure: Figure 3 Validation of the top two inhibitors identified from the high-throughput screen. […] (b, c) Dose-response curves for indicated compounds, cell based (U2OS cell line) (b) and in vitro (c). The IC50 value and the protein concentration used are indicated. Triple labeled substrate (0.1 μM) as in Figure 2a was used. The concentration range of inhibitors was 0.003–666.67 μM. […] The asterisks denote the radiolabel. Plotted are the average data from three independent experiments and the error bars represent 1 s.d.
(§1) Nuclease assays were performed in buffer R (20 mM Na-HEPES pH 7.5, 1 mM ATP, 0.1 mM DTT, 100 μg/ml bovine serum albumin, 0.05% Triton X-100, 2 mM MgCl2, 100 mM KCl) and contained 0.5 nM ends (2-kb substrate) or 5 nM ends (the ssDNA oligonucleotide PSOL6929) of DNA. Reactions containing Bloom syndrome also included an ATP regenerating system consisting of 10 mM creatine phosphate and 50 μg/ml creatine kinase. […] Gels were dried onto DEAE paper on top of Whatman filter paper (GE, Issaquah, WA, USA) and then analyzed in a BioRad Personal Molecular Imager FX phosphorimager. Band intensity was quantified using Image Lab software (Bio-Rad, Hercules, CA, USA). The fraction of DNA substrate digested was determined by measuring the amount of substrate remaining and normalizing to the total substrate in the negative control lane containing no protein.

hDNA2 = target: T2, hDNA2 (Homo sapiens, UniProt P51530); experiment: 5' flap processing by hDNA2; format: biochemical; settings: DNA2 […], Y DNA substrate 5 nM ends
T2 construct: made in house
T2 sequence (P51530 1-1060): T1 sequence (P51530 1-1060)
Procedure: as §1, with “kinase. In control reactions, DMSO was used in place of the inhibitor. Reactions with DNA2 alone were incubated at 30 °C, and those with DNA2-Bloom syndrome-Replication protein A and EXO1 were incubated at 37 °C for the indicated times.” for “kinase.”
Figure S2. […] (b) Plots showing quantitation of the experiments shown in a. […] (d) Plots showing quantitation of the experiments shown in c. […] (f) Plot showing quantitation of the experiment in e. […]

DNA2 protein level = experiment: Western blot of cellular DNA2 protein level; format: cell-based, human; settings: U2OS, PANC-1, Hs578T; up to 12 hrs
Procedure: Figure S8. Analysis of DNA2 protein levels in cells treated with NSC-105808. U2OS (a), PANC-1 (b) and Hs578T (c) cells were treated with the indicated concentrations of NSC-105808 for 4 hours (right) or with a single concentration of NSC-105808 (0.3 µM for U2OS and Hs578T cells; 0.6 µM for PANC-1 cells) for 0, 4, 8, or 12 hrs (left). The results were quantified and are shown below each panel, with the error bars representing the mean ± SD of three independent experiments.

| SMILES | Resection in the reconstituted system [1] | 5′ flap processing by hDNA2 (hDNA2) | Impact on cellular level of DNA2 protein (DNA2 protein level) |
| --- | --- | --- | --- |
| NC1=C(Br)C(=O)c2ncccc2C1=O [NSC-105808, 6-amino-7-bromoquinoline-5,8-dione] | inhibited | inhibited | No statistically significant difference; also recorded: no impact |
| O=C1C(=O)c2cc([N+](=O)[O-])ccc2-c2ccccc21 [NSC-5195242, 2-nitrophenanthrene-9,10-dione] | inhibited | inhibited | – |
